Measured values published in ChEMBL document CHEMBL1268959, “Synthesis and pharmacological activity of 1,3,6-trisubstituted-4-oxo-1,4-dihydroquinoline-2-carboxylic acids as selective ET(A) antagonists” (Bioorg Med Chem Lett, 2010).
Calls of active or inactive are those of the source. The calls are words filed in the database; no cut-off is given here.

What was measured:
Endothelin-1 receptor = target: T1, Endothelin-1 receptor (Homo sapiens, UniProt P25101); experiment: Displacement of [125I]ET1 from ETA receptor expressed in african green monkey CCL-81 cells monolayer; format: cell-based
T1 sequence (P25101 whole entry): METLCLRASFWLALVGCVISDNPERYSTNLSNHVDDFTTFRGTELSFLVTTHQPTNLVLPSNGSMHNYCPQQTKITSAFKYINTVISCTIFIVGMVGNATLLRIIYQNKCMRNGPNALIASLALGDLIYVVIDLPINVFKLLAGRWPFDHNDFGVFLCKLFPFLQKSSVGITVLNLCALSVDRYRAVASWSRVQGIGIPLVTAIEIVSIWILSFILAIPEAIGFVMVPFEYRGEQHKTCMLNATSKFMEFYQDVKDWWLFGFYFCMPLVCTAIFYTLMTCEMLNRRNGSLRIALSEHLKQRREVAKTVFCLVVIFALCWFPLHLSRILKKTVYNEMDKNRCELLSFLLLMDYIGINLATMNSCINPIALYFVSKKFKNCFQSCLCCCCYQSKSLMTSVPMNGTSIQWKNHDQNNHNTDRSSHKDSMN

[1] = target: T2, Endothelin receptor type B (Homo sapiens, UniProt P24530); experiment: Displacement of [125I]ET1 from human ETB receptor expressed in membranes
T2 sequence (P24530 whole entry): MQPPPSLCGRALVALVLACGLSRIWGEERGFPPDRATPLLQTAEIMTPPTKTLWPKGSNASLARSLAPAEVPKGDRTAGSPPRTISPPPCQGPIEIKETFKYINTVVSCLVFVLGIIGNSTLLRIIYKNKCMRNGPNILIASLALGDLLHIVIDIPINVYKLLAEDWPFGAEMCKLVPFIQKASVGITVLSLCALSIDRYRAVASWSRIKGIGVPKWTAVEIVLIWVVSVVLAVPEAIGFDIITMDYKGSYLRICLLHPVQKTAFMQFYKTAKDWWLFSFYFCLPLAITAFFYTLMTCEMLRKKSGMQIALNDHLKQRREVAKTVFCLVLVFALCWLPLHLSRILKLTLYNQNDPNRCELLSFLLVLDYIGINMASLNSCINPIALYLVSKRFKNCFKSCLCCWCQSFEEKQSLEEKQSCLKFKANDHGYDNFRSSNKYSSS

[2] = Selectivity ratio, ratio of IC50 for ETB receptor to IC50 for ETA receptor
Hamster [3] = experiment: Antiinflammatory activity against LPS-induced lung inflammation in hamster model assessed as reduction in bronchoalveolar lavage fluid leukocytes; format: functional, organism-based; settings: Cricetinae
Hamster [4] = experiment: Antiinflammatory activity against cigarette smoke-induced lung inflammation in hamster model assessed as reduction in bronchoalveolar lavage fluid leukocytes; format: functional, organism-based; settings: Cricetinae
Hamster [5] = experiment: Antiinflammatory activity against ET1-induced lung inflammation in hamster model assessed as reduction in bronchoalveolar lavage fluid leukocytes; format: functional, organism-based; settings: Cricetinae
Mus musculus = species on record: Mus musculus; experiment: Inhibition of LPS-induced preterm delivery in pregnant mouse model; format: functional, organism-based

Row | SMILES | IC50 (Endothelin-1 receptor) [nM] | IC50 [1] [nM] | Ratio IC50 [2] | inhibition (Hamster [3]) | inhibition (Hamster [4]) | inhibition (Hamster [5]) | inhibition (Mus musculus)
1 | CCc1cc2c(cc1Cn1c(C(=O)O)c(Cc3cccc(C(=O)O)c3)c(=O)c3cc(OC(C)CC)ccc31)OCO2 (stereo unspecified) | 9.9 | – | – | – | – | – | –
2 | CCCOc1ccc2c(c1)c(=O)c(Cc1cccc(C(=O)O)c1)c(C(=O)O)n2Cc1cc2c(cc1CC)OCO2 | 0.11 | 913 | 8300 | – | – | – | –
3 | CCc1cc2c(cc1Cn1c(C(=O)O)c(Cc3cccc(C(=O)O)c3)c(=O)c3cc(OC(C)C)ccc31)OCO2 | 13.5 | 677 | 50 | – | – | – | –
4 | CC(C)C[C@@H]1NC(=O)[C@@H](C(C)C)NC(=O)[C@@H]2CCCN2C(=O)C(CC(=O)O)NC(=O)[C@@H](Cc2c[nH]c3ccccc23)NC1=O (single isomer, unassigned) [BQ-123] | 24.8 | – | – | – | – | – | –
5 | CCCCCOc1ccc2c(c1)c(=O)c(Cc1cccc(C(=O)O)c1)c(C(=O)O)n2Cc1cc2c(cc1CC)OCO2 | 610 | – | – | – | – | – | –
6 | CCc1cc2c(cc1Cn1c(C(=O)O)c(Cc3cccc(C(=O)O)c3)c(=O)c3cc(OCCCO)ccc31)OCO2 | 7.4 | 4390 | 593 | – | – | – | –
7 | CCCCOc1ccc2c(c1)c(=O)c(Cc1cccc(C(=O)O)c1)c(C(=O)O)n2Cc1cc2c(cc1CC)OCO2 | 1.44 | 548 | 381 | – | – | – | –
8 | CCc1cc2c(cc1Cn1c(C(=O)O)c(Cc3cccc(C(=O)O)c3)c(=O)c3cc(OCC(C)C)ccc31)OCO2 | 6.3 | 1980 | 315 | – | – | – | –
9 | CCc1cc2c(cc1Cn1c(C(=O)O)c(Cc3cccc(C(=O)O)c3)c(=O)c3ccccc31)OCO2 | 0.69 | 571 | 827 | – | – | – | –
10 | C=CCOc1ccc2c(c1)c(=O)c(Cc1cccc(C(=O)O)c1)c(C(=O)O)n2Cc1cc2c(cc1CC)OCO2 | 38.1 | 1130 | 30 | – | – | – | –
11 | CCc1cc2c(cc1Cn1c(C(=O)O)c(Cc3cccc(C(=O)O)c3)c(=O)c3cc(OCOC)ccc31)OCO2 | 24.4 | 1030 | 43 | – | – | – | –
12 | CCc1cc2c(cc1Cn1c(C(=O)O)c(Cc3cccc(C(=O)O)c3)c(=O)c3cc(O)ccc31)OCO2 | 38.9 | 15600 | 399 | Active | Active | Active | Active
13 | CCc1cc2c(cc1Cn1c(C(=O)O)c(Cc3cccc(C(=O)O)c3)c(=O)c3cc(OCC(=O)O)ccc31)OCO2 | 285 | 1450 | 5 | – | – | – | –
14 | CCOc1ccc2c(c1)c(=O)c(Cc1cccc(C(=O)O)c1)c(C(=O)O)n2Cc1cc2c(cc1CC)OCO2 | 6.6 | 3120 | 473 | – | – | – | –
15 | CCc1cc2c(cc1Cn1c(C(=O)O)c(Cc3cccc(C(=O)O)c3)c(=O)c3cc(OCC4CC4)ccc31)OCO2 | 116 | – | – | – | – | – | –
